# Data taken from US4857455A, “Method for the determination of peroxidase using fluorogenic substrates” (Syntex (U.S.A) Inc., priority 1982, dated 1989).
# Several values for one entry are separate records, joined by “and”; a condition that tells them apart may be missing. Equal entries are not always repeated.
# Experiments:
# Format in all cases: biochemical, horseradish
# horse radish peroxidase [1] = target: T1, horse radish peroxidase (Armoracia rusticana, UniProt P00433); experiment: change in fluorescence of substrate with HRP and hydrogen peroxide over 60 seconds; conditions: substrate 800 μl, H2O2 100 μl, 60 second interval, pH 8
# T1 sequence (P00433 31-353): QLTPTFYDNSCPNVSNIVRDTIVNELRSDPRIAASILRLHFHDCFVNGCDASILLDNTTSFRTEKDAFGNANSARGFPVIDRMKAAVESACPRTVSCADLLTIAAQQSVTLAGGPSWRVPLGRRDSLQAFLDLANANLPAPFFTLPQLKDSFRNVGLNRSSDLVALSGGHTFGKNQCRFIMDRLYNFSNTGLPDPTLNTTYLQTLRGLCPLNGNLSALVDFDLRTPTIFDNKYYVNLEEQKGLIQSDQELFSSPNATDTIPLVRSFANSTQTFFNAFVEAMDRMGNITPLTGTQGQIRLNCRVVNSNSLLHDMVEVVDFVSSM
# Method: (§1) In the next assay, the fluorogenic precursor of Example I was employed. […] An assay solution was prepared comprising the […] compound of Example I, hydrogen peroxide, horse radish peroxidase, and buffer (0.1M phosphate, pH 8.0) and the change in fluorescence in the solution determined over a 60 second interval. The substrate solution which was added was 3.9 mg/100 ml concentration in buffer, the hydrogen peroxide was 9.×10^-4 M, the HRP solution was 6.6 ng/ml containing 0.5 mgBSA/ml and the buffer was 0.1M phosphate, pH 8. The following table indicates the results.
# horse radish peroxidase [2] = experiment: as above; conditions: HRP solution (6.6 ng/ml) 0 μl, substrate 800 μl, H2O2 100 μl, buffer 100 μl; 60 second interval, pH 8
# Method: as §1
# HRP-antiPRP conjugate = target: T2, HRP-antiPRP conjugate (Armoracia rusticana, UniProt P00433); experiment: microtiter plate PRP immunoassay with HRP-antiPRP conjugate and fluorogenic substrate; conditions: 10 minute incubation at 37° C.; for Fluorescence with PRP: 50 ng/ml PRP; for Fluorescence without PRP: PBS buffer instead of PRP
# T2 construct: purchased Sigma
# T2 sequence (P00433 31-338 limits assumed): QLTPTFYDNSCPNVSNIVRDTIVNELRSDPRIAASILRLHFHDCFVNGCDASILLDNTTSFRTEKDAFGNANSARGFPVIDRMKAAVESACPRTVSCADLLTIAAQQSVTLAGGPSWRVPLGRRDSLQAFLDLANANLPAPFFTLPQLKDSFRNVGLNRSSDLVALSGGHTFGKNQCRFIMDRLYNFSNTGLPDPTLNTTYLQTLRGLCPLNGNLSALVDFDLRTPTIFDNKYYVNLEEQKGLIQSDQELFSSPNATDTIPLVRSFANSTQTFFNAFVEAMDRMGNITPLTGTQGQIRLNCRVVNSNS
# Method: Microtiter plate wells were coated with a solution (250 μl/well) of an amine modified glucose oxidase (1 to 190 dilution, 7.6 mg/ml stock solution) and antibodies to polyribosephosphate (1:2000 dilution in 60 mM carbonate buffer, pH 9.6). After standing overnight, the wells were washed with PBS containing 0.05% Tween 20 (W/V).
# A stock solution was prepared of the fluorogenic substrate of Example II. A 3.8 mg/10 ml DMF solution (1.22 mM) was diluted 1:10 with PBS buffer immediately before use. A substrate mixture was prepared containing 500 μl of the above stock solution, 694 μl of 1.8M glucose, 400 μl of a stock catalase solution and the volume brought to 2 ml with PBS buffer. The stock catalase solution (3.1-4 mg/ml) was prepared by dialysing catalase (C-100 Sigma) in PBS pH 7.2.
# The following protocol was then employed for the assay. Into each microtiter well coated with amino glucose oxidase (see copending application serial No. 398,505, filed July 15, 1982) and antiPRP was added 100 μl of 50 ng/ml PRP or 100 μl of PBS buffer (pH 7.2) and the mixture incubated for one hour at room temperature. At the end of this time, 50 μl of HRP-antiPRP conjugate was added followed by another one hour incubation. At the end of this time, 100 μl of a substrate mixture was added, followed by a 10 minute incubation at 37° C. with shaking, after which time 200 μl of the incubation mixture was diluted with 1.8 ml, of 0.1M phosphate buffer (pH 8.0) and the fluorescence read.
# HRP = target: T3, HRP (Armoracia rusticana, UniProt P00433); experiment: qualitative test as HRP substrate (generation of a fluorescent product with HRP and H2O2); conditions: with HRP and H2O2 in aqueous solution, result in words
# T3 sequence (P00433 31-353): T1 sequence (P00433 31-353)
# Method: The sample was filtered through a sintered glass filter to obtain a clear solution, the solvent evaporated and the residue dissolved in 5 ml DMF. The solution was then evaporated to dryness, dissolved in 1 ml. DMF, followed by a dilution with 4 ml buffer and an assay carried out as described previously employing 100 microliters of the substrate.
# [3] = HRP-antiPRP dilution 0 (no conjugate)
structure (smiles),measurement,setting,value
"Nc1ccc(Oc2ccc3cc(C(=O)O)c(=O)oc3c2)cc1 [Example I, 3-carboxy-7-(4'-aminophenoxy)coumarin]",ΔF,"horse radish peroxidase [1]; HRP solution (6.6 ng/ml) 20 μl, buffer 80 μl",11.0
same,ΔF,"horse radish peroxidase [1]; HRP solution (6.6 ng/ml) 50 μl, buffer 50 μl",16.2
same,ΔF,"horse radish peroxidase [1]; HRP solution (6.6 ng/ml) 100 μl, buffer 0 μl",29.7 and 30.4
same,ΔF,horse radish peroxidase [2],6.6
"Cc1cc(Oc2ccc3cc(C(=O)O)c(=O)oc3c2)ccc1N [Example II, 3-carboxy-7-(3'-methyl-4'-aminophenoxy)coumarin]",Fluorescence with PRP,HRP-antiPRP conjugate; [3],2.2
same,Fluorescence without PRP,HRP-antiPRP conjugate; [3],2.4
same,Fluorescence with PRP,HRP-antiPRP conjugate; HRP-antiPRP dilution 1:80,79.5
same,Fluorescence without PRP,HRP-antiPRP conjugate; HRP-antiPRP dilution 1:80,67.1
same,Fluorescence with PRP,HRP-antiPRP conjugate; HRP-antiPRP dilution 1:320,31.8 and 29.6 and 32.5
same,Fluorescence without PRP,HRP-antiPRP conjugate; HRP-antiPRP dilution 1:320,11.0 and 14.2 and 13.4
same,Fluorescence with PRP,HRP-antiPRP conjugate; HRP-antiPRP dilution 1:1280,13.8
same,Fluorescence without PRP,HRP-antiPRP conjugate; HRP-antiPRP dilution 1:1280,5.2
"O=C(O)CNc1ccc(Oc2ccc3cc(C(=O)O)c(=O)oc3c2)cc1 [Example III, 3-carboxy-7-(N-carboxymethyl 4'-aminophenoxy)coumarin]",activity as HRP substrate,HRP,useful as an HRP substrate
"Cc1cc(Oc2ccc3cc(C(=O)NCCS(=O)(=O)O)c(=O)oc3c2)ccc1N [Example IV, taurine derivative of 3-carboxy-7-(3'-methyl-4'-aminophenoxy)coumarin]",activity as HRP substrate,HRP,useful as a HRP substrate
"Cc1cc(Oc2ccc3cc(C(=O)N[C@H]4C(O)O[C@H](CO)[C@@H](O)[C@@H]4O)c(=O)oc3c2)ccc1N (stereo partly shown) [Example V, glucosamine derivative of 3-carboxy-7-(3'-methyl-4'aminophenoxy)coumarin]",activity as HRP substrate,HRP,active as an HRP substrate
"Cc1cc(Oc2ccc3cc(C(=O)O)c(=O)oc3c2)cc(Br)c1N [Example VI, 3-carboxy-7-(3'-methyl-4'-amino-5'-bromophenoxy)coumarin]",activity as HRP substrate,HRP,active HRP substrate
